{"source": "paper PMC6861001", "about": "(Chemistry (Weinheim an der Bergstrasse, Germany), 2019)", "origin": "cited, not measured here"}
{"smiles": "N[C@@H](C[SeH])C(=O)O", "note": "[Sec, selenocysteine]", "values": [{"measurement": "pKa of selenol group", "result": "~5.2"}, {"measurement": "reduction potential E0", "result": "−386", "unit": "mV"}]}
